{"source": "paper PMC5799093", "about": "“Proceedings of Réanimation 2018, the French Intensive Care Society International Congress” (Annals of Intensive Care, 2018)", "key": {"Escherichia-coli": {"system": "Escherichia-coli", "experiment": "Resistance in nosocomial urinary tract infection: Escherichia-coli (P-219)", "details": "January 2010 - June 2014"}, "Pseudomonas [1]": {"system": "Pseudomonas", "details": "January 2010 - June 2014"}, "[2]": {"system": "Pseudomonas aeruginosa (PA)", "experiment": "Antibiotic resistance of Pseudomonas aeruginosa before/after antibiotic stewardship (P-214)", "assay_type": "cell-based"}, "Pseudomonas [3]": {"system": "Pseudomonas", "experiment": "Resistance of VAP isolates: pseudomonas (P-224)", "assay_type": "cell-based", "details": "2014-2015", "excerpt": "(§1) Patients and methods: Retrospective study spread over 2 years from January 2014 to December 2015 carried out in the resuscitation unit of the medical and surgical emergency department of CHUOran. Data utilization with Whonet software. The criteria of vap retained are those of CTINILS (May 2007)."}, "Acinetobacter baumannii [4]": {"system": "Acinetobacter baumannii", "details": "January 2010 - June 2014"}, "Acinetobacter baumannii [5]": {"system": "Acinetobacter baumannii", "assay_type": "cell-based", "details": "blood culture isolates 2012–2016", "protocol": "(§2) Patients and methods: From January 2012 to December 2016, a total of 2,182 non repetitive strains were isolated from blood cultures. Incubation of blood culture vials and the detection of bacterial growth were performed by the BACTEC system. All Isolated organisms were identified on the basis of standard microbiological techniques. Antibiotic susceptibility testing was carried out by the agar disk diffusion method, and susceptibility results were interpreted using clinical breakpoints according to CA-SFM 2013 and 2015 guidelines. Data were analyzed using the SIR-system. Minimum inhibitory concentrations of colistin, imipenem and vancomycin were determined using the Etest® method (bioMérieux)."}, "[6]": {"system": "carbapenemase-producing Enterobacteriaceae", "experiment": "Antibiotic susceptibility of Enterobacteriaceae with decreased susceptibility to carbapenems", "assay_type": "cell-based", "details": "39 selected bacteria"}, "acintobacter baumanii": {"system": "acintobacter baumanii", "experiment": "Resistance of VAP isolates: baumanii (P-224)", "assay_type": "cell-based", "details": "2014-2015", "excerpt": "as §1"}, "[7]": {"system": "Extended spectrum betalactamase producing Enterobacteriaceae", "experiment": "Antibiotic resistance of ESBL producing Enterobacteriaceae (P-147)", "assay_type": "cell-based", "details": "isolates 2015 and 2016"}, "Pseudomonas aeruginosa [8]": {"system": "Pseudomonas aeruginosa", "experiment": "Disk diffusion susceptibility of P. aeruginosa isolated from burned patients (P-48)", "assay_type": "cell-based", "details": "485 strains from burned patients 2012-2015, disk diffusion, FSM breakpoints"}, "Acinetobacter Baumanii": {"system": "Acinetobacter Baumanii", "experiment": "Resistance of nosocomial infection isolates: Acinetobacter Baumanii (P-222)", "assay_type": "cell-based", "details": "n = 39 isolates, 2016", "excerpt": "(§3) Patients and methods: This was a retrospective study conducted within a 22-bed medical ICU of a Tunisian teaching hospital (301 beds) carried from January 1st to December 31, 2016. We recorded demographic patients’ characteristics which ICU’s stay was complicated with at least one NI. Then we described pathogens and microbiological specificities of NI."}, "[9]": {"experiment": "Beta-lactam plasma concentrations in children with severe sepsis or septic shock (HPLC)", "details": "current standard dosing"}, "Pseudomonas aeruginosa [10]": {"system": "Pseudomonas aeruginosa"}, "Staphylococcus aureus [11]": {"system": "Staphylococcus aureus", "assay_type": "cell-based", "details": "blood culture isolates 2012–2016", "protocol": "as §2"}, "[12]": {"system": "coagulase negative Staphylococcus", "experiment": "Resistance of nosocomial infection isolates: coagulase negative Staphylococcus (P-222)", "assay_type": "cell-based", "details": "n = 12 isolates, 2016", "excerpt": "as §3"}, "Staphylococcus aureus [13]": {"system": "Staphylococcus aureus", "experiment": "Resistance in nosocomial urinary tract infection: Staphylococcus aureus (P-219)", "details": "January 2010 - June 2014"}}, "note": "Where two headings read alike, the source gives them in different places."}
{"smiles": "C[C@@H](O)[C@H]1C(=O)N2C(C(=O)O)=C(SCCN=CN)C[C@H]12", "note": "[imipenem]", "values": [{"measurement": "resistance rate", "setting": "Klebsiella pneumoniae", "result": 15, "unit": "%"}, {"measurement": "resistant", "setting": "Escherichia-coli", "result": 8, "unit": "%"}, {"measurement": "resistant", "setting": "Pseudomonas [1]", "result": 64, "unit": "%"}, {"measurement": "antibiotic resistance of PA", "setting": "[2]; period 2007–2010 (P1)", "result": 38, "unit": "%"}, {"measurement": "antibiotic resistance of PA", "setting": "[2]; period 2011–2014 (P2), after antibiotic stewardship, p < 0.01", "result": 18, "unit": "%"}, {"measurement": "resistant", "setting": "Pseudomonas [3]", "result": 18.4, "unit": "%"}, {"measurement": "resistant", "setting": "Acinetobacter baumannii [4]", "result": 87, "unit": "%"}, {"measurement": "resistance rate", "setting": "Acinetobacter baumannii [5]", "result": 94, "unit": "%"}, {"measurement": "strains with MIC > 8 mg l", "setting": "[6]", "result": 30, "unit": "%"}, {"measurement": "resistant", "setting": "acintobacter baumanii", "result": 55, "unit": "%"}, {"measurement": "rate of resistance", "setting": "[7]", "result": 2.17, "unit": "%"}, {"measurement": "strains resistant", "setting": "Pseudomonas aeruginosa [8]", "result": 56, "unit": "%"}, {"measurement": "resistance", "setting": "Acinetobacter Baumanii", "result": 100, "unit": "%"}, {"measurement": "patients with insufficient plasma concentration", "setting": "[9]", "result": 0, "unit": "%"}, {"measurement": "resistance rate", "setting": "Pseudomonas aeruginosa [10]", "result": 72, "unit": "%"}]}
{"smiles": "COc1cccc(OC)c1C(=O)N[C@@H]1C(=O)N2[C@@H]1SC(C)(C)[C@@H]2C(=O)O", "note": "[methicillin]", "values": [{"measurement": "resistance rate", "setting": "Staphylococcus aureus [11]", "result": 70, "unit": "%"}, {"measurement": "resistant", "setting": "[12]", "result": 75, "unit": "%"}, {"measurement": "resistant", "setting": "Staphylococcus aureus [13]", "result": 25, "unit": "%"}]}
